# Measured values taken from patent US20100285959A1, “HERBICIDAL MIXTURES” (priority 2006, published 2010).
# Experiments:
# Assay in all cases: Test 25 field trial, postemergence, growth as percent of control
# [1] = system: Pennsylvania smartweed (POLPY); format: in vivo, Polygonum pensylvanicum; details: 14 DAA
# Text: (§1) Corn seeds (hybrid ‘Pioneer 31G96 RR’) were planted in mid spring season, 3.8 cm deep in a clay loam soil having 2% organic matter and a pH of 6.6. Plots were 6.1 m long by 3.0 m wide with rows spaced 76 cm apart. Seeds were spaced 15 cm apart within the rows. The field was managed using conventional tillage practices. […] Giant ragweed and Pennsylvania smartweed could only be evaluated 14 days after application. […] Results are the means of the three replicates. This growth inhibition data was converted to results in the form of “plant growth as a percent of control plant growth” using the calculation “100 minus growth inhibition”.
# (§2) When this form of Colby's Equation is used, if the observed effects on weeds are less than the expected values, the mixture is synergistic.
# common ragweed (AMBEL) = format: in vivo, Ambrosia artemisiifolia
# Text: as §1, §2
# redroot pigweed (AMARE) = format: in vivo, Amaranthus retroflexus
# Text: as §1, §2
# velvetleaf (ABUTH) = format: in vivo, Abutilon theophrasti
# Text: as §1, §2
# giant foxtail (SETFA) = format: in vivo, Setaria faberi
# Text: as §1, §2
# corn (ZEAMD) = format: in vivo, Zea mays ssp. indentata
# Text: as §1, §2
# giant ragweed (AMBTR) = format: in vivo, Ambrosia trifida; details: 14 DAA
# Text: as §1, §2
# [2] = system: common lambsquarters (CHEAL); format: in vivo, Chenopodium album
# Text: as §1, §2
# [3] = Nicosulfuron 15 g a.i./ha, 14 DAA
# [4] = Nicosulfuron 15 g a.i./ha, 28 DAA
# [5] = Nicosulfuron 15 g a.i./ha, 56 DAA
# [6] = Diflufenzopyr 30 g a.i./ha, 14 DAA
# [7] = Diflufenzopyr 30 g a.i./ha, 28 DAA
# [8] = Diflufenzopyr 30 g a.i./ha, 56 DAA
# [9] = Diflufenzopyr 45 g a.i./ha, 14 DAA
# [10] = Diflufenzopyr 45 g a.i./ha, 28 DAA
# [11] = Diflufenzopyr 45 g a.i./ha, 56 DAA
structure (smiles),measurement,setting,value
COc1cc(OC)nc(NC(=O)NS(=O)(=O)c2ncccc2C(=O)N(C)C)n1 [Nicosulfuron],POLPY Obs (percent of control),[1]; Nicosulfuron 15 g a.i./ha,28%
same,AMBEL Obs (percent of control),common ragweed (AMBEL); [3],95%
same,AMBEL Obs (percent of control),common ragweed (AMBEL); [4],100%
same,AMBEL Obs (percent of control),common ragweed (AMBEL); [5],100%
same,AMARE Obs (percent of control),redroot pigweed (AMARE); [3],2%
same,AMARE Obs (percent of control),redroot pigweed (AMARE); [4],2%
same,AMARE Obs (percent of control),redroot pigweed (AMARE); [5],33%
same,ABUTH Obs (percent of control),velvetleaf (ABUTH); [3],48%
same,ABUTH Obs (percent of control),velvetleaf (ABUTH); [4],73%
same,ABUTH Obs (percent of control),velvetleaf (ABUTH); [5],100%
same,SETFA Obs (percent of control),giant foxtail (SETFA); [3],15%
same,SETFA Obs (percent of control),giant foxtail (SETFA); [4],11%
same,SETFA Obs (percent of control),giant foxtail (SETFA); [5],7%
same,ZEAMD Obs (percent of control),corn (ZEAMD); [3],100%
same,ZEAMD Obs (percent of control),corn (ZEAMD); [4],100%
same,ZEAMD Obs (percent of control),corn (ZEAMD); [5],100%
same,AMBTR Obs (percent of control),giant ragweed (AMBTR); Nicosulfuron 15 g a.i./ha,100%
same,CHEAL Obs (percent of control),[2]; [3],95%
same,CHEAL Obs (percent of control),[2]; [4],72%
same,CHEAL Obs (percent of control),[2]; [5],53%
C/C(=N\NC(=O)Nc1cc(F)cc(F)c1)c1ncccc1C(=O)O [Diflufenzopyr],POLPY Obs (percent of control),[1]; Diflufenzopyr 30 g a.i./ha,30%
same,POLPY Obs (percent of control),[1]; Diflufenzopyr 45 g a.i./ha,35%
same,AMBEL Obs (percent of control),common ragweed (AMBEL); [6],60%
same,AMBEL Obs (percent of control),common ragweed (AMBEL); [7],73%
same,AMBEL Obs (percent of control),common ragweed (AMBEL); [8],83%
same,AMBEL Obs (percent of control),common ragweed (AMBEL); [9],57%
same,AMBEL Obs (percent of control),common ragweed (AMBEL); [10],60%
same,AMBEL Obs (percent of control),common ragweed (AMBEL); [11],75%
same,AMARE Obs (percent of control),redroot pigweed (AMARE); [6],48%
same,AMARE Obs (percent of control),redroot pigweed (AMARE); [7],63%
same,AMARE Obs (percent of control),redroot pigweed (AMARE); [8],30%
same,AMARE Obs (percent of control),redroot pigweed (AMARE); [9],47%
same,AMARE Obs (percent of control),redroot pigweed (AMARE); [10],55%
same,AMARE Obs (percent of control),redroot pigweed (AMARE); [11],55%
same,ABUTH Obs (percent of control),velvetleaf (ABUTH); [6],28%
same,ABUTH Obs (percent of control),velvetleaf (ABUTH); [7],58%
same,ABUTH Obs (percent of control),velvetleaf (ABUTH); [8],33%
same,ABUTH Obs (percent of control),velvetleaf (ABUTH); [9],15%
same,ABUTH Obs (percent of control),velvetleaf (ABUTH); [10],55%
same,ABUTH Obs (percent of control),velvetleaf (ABUTH); [11],40%
same,SETFA Obs (percent of control),giant foxtail (SETFA); [6],40%
same,SETFA Obs (percent of control),giant foxtail (SETFA); [7],60%
same,SETFA Obs (percent of control),giant foxtail (SETFA); [8],68%
same,SETFA Obs (percent of control),giant foxtail (SETFA); [9],40%
same,SETFA Obs (percent of control),giant foxtail (SETFA); [10],58%
same,SETFA Obs (percent of control),giant foxtail (SETFA); [11],60%
same,ZEAMD Obs (percent of control),corn (ZEAMD); [6],100%
same,ZEAMD Obs (percent of control),corn (ZEAMD); [7],83%
same,ZEAMD Obs (percent of control),corn (ZEAMD); [8],100%
same,ZEAMD Obs (percent of control),corn (ZEAMD); [9],100%
same,ZEAMD Obs (percent of control),corn (ZEAMD); [10],88%
same,ZEAMD Obs (percent of control),corn (ZEAMD); [11],100%
same,AMBTR Obs (percent of control),giant ragweed (AMBTR); Diflufenzopyr 45 g a.i./ha,75%
same,CHEAL Obs (percent of control),[2]; [6],50%
same,CHEAL Obs (percent of control),[2]; [7],78%
same,CHEAL Obs (percent of control),[2]; [8],10%
same,CHEAL Obs (percent of control),[2]; [9],45%
same,CHEAL Obs (percent of control),[2]; [10],65%
same,CHEAL Obs (percent of control),[2]; [11],0%
